# From patent publication US20040109845A1, “Method for inhibiting articular cartilage matrix calcification” (priority 2001, published 2004)
# Columns and labels:
# [1] = test system: tTGase and Factor XIIIa expression in knee articular cartilage and medial meniscus; experiment: Immunohistochemistry of cartilage organ culture; type: cell-based, human; settings: organ culture 48 hours
# Description: Articular cartilage and medial menisci from normal donors were studied in cartilage organ culture in media supplemented with 1% FCS and 1% L-glutamine, as described in the Methods, following 48 hours of treatment with TGFβ 10 ng/ml, IL-1β (1 ng/ml), or medium alone.
# Immunohistochemistry was performed as previously described in detail (30,33,34). In brief, immunohistochemical sections (5 microns) were pretreated with bovine testicular hyaluronidase (0.5 mg/ml at 37° C. for 30 min) and incubated in 5% normal goat or rabbit serum for 20 min prior to avidin/biotin peroxidase staining by the ABC method. Hematoxilin was used as the counterstain. Biotinylated anti-rabbit or anti-goat antibodies served as secondary antibodies. Levamisole was added to block endogenous alkaline phosphatase (AP). Negative controls were nonimmune rabbit or goat serum as a substitute for primary antibody.
# Meniscal cells were taken from tissue slices removed from the central regions of the medial and lateral menisci. Where indicated, meniscal organ culture was performed by incubating these slices for b 48 hours in DMEM high glucose containing 1% FCS and 1% L-glutamine (and articular cartilage organ culture performed in the same manner, where indicated). Otherwise, we minced meniscal tissue with a scalpel, incubated in DMEM high glucose containing 2 mg/ml clostridial collagenase, 5% FCS, 1% L-glutamine, 100 units/ml Penicillin and 50 μg/ml Streptomycin (Omega Scientific, Tarzana, Calif.), and incubated on a gyratory shaker at 37° C. until the tissue fragments were digested. Residual multicellular aggregates were removed by sedimentation (1,000×g), and cells were washed three times in DMEM containing 5% FCS.
# [2] = test system: meniscal cells and TC28 cells; experiment: Matrix calcification, quantitative Alizarin Red S binding assay; type: cell-based, human; settings: polyHEME culture up to 10 days; cytokines 10 ng/ml or TGase transfection
# Description: TC28 cells and meniscal cells were transfected with empty plasmid or a TGase expression construct, and then transferred to polyHEME and cultured for up to 10 days, as described above. For comparison purposes, control untransfected cells were treated with IL-1 or TGFβ(10 ng/ml each) for up to 10 days. To measure matrix calcification, media and cells were removed from the PolyHEME-coated dishes, and 1 ml Alizarin Red S solution (0.5% v/v Alizarin Red S, pH 5.0) added to washed plates at 23° C. for 10 min. After further washing, 100 mM Cetylpyridium Chloride was added for 10 min to release the remaining calcium-bound Alizarin Red S. The solution was collected and read at OD570, with 1.0 OD570=1 unit of Alizarin Red released per μg of DNA per culture dish. n=6 each, studied in triplicate, and using 6 different knee meniscal donors. *p<0.05.
# To promote matrix calcification in short-term cultures, we modified a nonadherent chondrocyte culture system (37), and assessed cells that formed calcifying nodules over 10 days in culture. In brief, meniscal and TC28 cells, at 24 hours after the transfection, were washed and removed from the dish using 0.2 mg/ml EDTA, pH 8.0, then transferred to 6 well plates that had been previously coated with a 10% (wt./v) in 95% ethanol solution of Poly (2-Hydroxyethyl methacrylate) (polyHEME). […]
# To assay calcification of the pericellular matrix of meniscal cells and TC28 cells, we used a quantitative Alizarin Red S binding assay (38). […] The solution was collected and read at OD570 on a SpectraMAX microplate reader (Molecular Devices, Sunnyvale, Calif.), with 1 OD570=1 unit of Alizarin Red released per μg of DNA per culture dish. We extracted matrix crystals from plates under each condition using a papain-hypochlorite method (39), and the crystals were embedded in Spurr epoxy resin, sectioned, and viewed on a Philips EM340 transmission electron micrograph and analyzed by electron diffraction (40,41).
# [3] = test system: S100A11 mRNA in human articular chondrocytes; experiment: S100A11 mRNA expression by RT-PCR; type: cell-based; settings: 10 ng/ml, 24 hours, relative to L30
# Description: Normal human knee articular chondrocytes were treated in culture with IL-1 or IGF-I (10 ng/ml) for 24 hours and ascertained for S100A11 mRNA expression by RT-PCR, relative to the loading control L30, a ribosomal housekeeping gene. Results for induction of S100 A11 representative of 3 separate experiments with different donors.
substance,measurement,setting,value
IL-1β: Human recombinant IL-1β purchased from R&D Systems,tTGase and Factor XIIIa immunostaining,"[1]; knee articular cartilage and meniscal cartilage slices, TGFβ 10 ng/ml, IL-1β 1 ng/ml",induced increased tTGase and Factor XIIIa immunostaining
same,Factor XIIIa expression,[1]; knee articular cartilage,up-regulated
same,tTGase expression,[1]; knee articular cartilage,up-regulated tTGase expression
same,Matrix calcification (bound Alizarin Red S),[2],significantly increased matrix calcification
same,S100A11 mRNA expression,[3],induce mRNA expression of S100A11
